8 compounds from PubChem BioAssay (NCI) can be followed below.

Where “and” joins values, the source holds several entries; their conditions need not be identical. Identical values can stand only once.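 Results reflect a 48-hour exposure of cells in 96-well plates to compound at five concentrations. GI50 is the concentration that inhibits growth by half. Definition used: TGI = concentration required for complete inhibition of growth.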

Holding throughout (test): DTP human tumour cell line panel, 48 h
Experiment [1] concerns HS 578T breast.
Experiment [2] deals with MALME-3M melanoma.
Experiment [3] deals with DU-145 prostate.
In experiment [4] the test system is T-47D breast.
The subject of experiment [5] is SR leukemia.
Experiment [6] concerns M14 melanoma.
In experiment [7] the test system is SK-MEL-28 melanoma.
The test system of experiment [8] is MDA-MB-435.
Experiment [9] has as its system EKVX NSCLC.
Experiment [10] deals with U251 CNS.

As usually defined, the GI50 is the concentration that inhibits growth by half. As a reminder, the TGI is the concentration at which net growth stops. A high value points to less potent growth arrest. In the case of `CNCCCn1c2c(c3ccc([N+](=O)[O-])cc3c1=O)C(=O)c1cc(OC)cnc1-2`, the GI50 was 1.17 µM in experiment [1]; 0.175 µM in [2]; 0.052 µM in [3]; 0.0309 µM in [4]; 0.0123 µM in experiment [5]; 0.0394 µM in [6]. For the same compound, the GI50 in experiment [7] was 0.387 µM; in experiment [8] it was 0.15 µM; in experiment [9], 0.273 µM; in [10], 0.0364 µM. In addition, the TGI in experiment [1] was determined as 5.27 µM; in experiment [2], 0.923 µM; in [3] it was 1.15 µM; in [4] it was 0.283 µM; in experiment [5], 1.75 µM; in [6], 0.358 µM. For the same compound, the TGI in experiment [7] was 2.1 µM; in experiment [8], 1.17 µM; in experiment [9], 5.83 µM; in experiment [10], 0.251 µM.

As to `COc1cc2ccccc2oc1=O`, the TGI in experiment [1], in [2], in experiment [3], in experiment [4], in [5] and in [6] was greater than 100 µM throughout. Besides, the TGI in experiment [7], in [8], in [9] and in experiment [10] was greater than 100 µM in each case.

With `Cc1cc(NCCN(C(C)C)C(C)C)nc(/N=C(\N)Nc2ccc(Cl)c(C(F)(F)F)c2)n1`, the GI50 was 0.473 µM in experiment [1]; 0.183 µM in [2]; 1.47 µM in [3]; 0.183 µM in experiment [4]; 0.155 µM in experiment [5]; 0.181 µM in experiment [6]. Further, the GI50 in experiment [7] is 0.176 µM; in experiment [8], 0.196 µM; in experiment [9], 1.48 µM; in [10] it was 0.194 µM. Also, the TGI in [1] worked out at 1.69 µM; in experiment [2], 0.403 µM; in experiment [3], 3.04 µM; in [4], 0.361 µM; in experiment [5], 0.425 µM; in experiment [6] it was 0.323 µM. The TGI in [7] was found to be 0.32 µM; in [8] it was 0.389 µM; in experiment [9] it was 3.75 µM; in experiment [10] it was 0.4 µM.

`N#CCCN(CCCN(CCCN(C(=O)Nc1ccccc1)c1ccccc1)C(=O)Nc1ccccc1)C(=O)Nc1ccccc1`: the TGI was greater than 100 µM in experiment [1]; > 8.75 µM and 67.2 µM in experiment [2]; greater than 100 µM in experiment [3]; greater than 100 µM in experiment [4]; greater than 8.75 µM in [5]; greater than 100 µM in experiment [6]. The concentration for total growth inhibition (TGI) in experiment [7] is greater than 100 µM; in [8], greater than 100 µM; in experiment [9], > 8.75 µM and 70.5 µM; in experiment [10], greater than 100 µM. Also, the GI50 in experiment [2] was 16 µM; in [3], greater than 100 µM; in experiment [4] it was greater than 100 µM; in experiment [6] it was greater than 100 µM; in experiment [7], greater than 100 µM; in [8], 34.9 µM. The GI50 in experiment [9] was 16.3 µM.

`O=CN/C=C/c1cccc(O)c1`: the TGI was greater than 95.1 µM in [1]; greater than 100 µM in experiment [2]; greater than 97.5 µM in [3]; 98.7 µM in experiment [4]; greater than 75.2 µM in experiment [5]; greater than 88.2 µM in experiment [6]. Further, the TGI in [7] was greater than 100 µM; in [8], greater than 100 µM; in [9], greater than 96.6 µM; in [10], greater than 83 µM.

`Cc1cc(O)c(C2=NN(c3ccc(S(N)(=O)=O)cc3)C(c3ccccc3Cl)C2)cc1Cl` (configuration not stated): the GI50 is 3.28 µM in [1]; 2.62 µM in experiment [2]; 2.01 µM in [3]; 2.81 µM in experiment [4]; 2.97 µM in experiment [5]; 1.85 µM in experiment [6]. Besides, the GI50 in experiment [7] was 3.39 µM; in [8], 1.85 µM; in [9] it was 1.95 µM; in experiment [10], 2.25 µM. Also, the TGI in [1] was greater than 100 µM; in [2], 6.46 µM; in experiment [3], 3.85 µM; in [4], 10.3 µM; in experiment [5] it was greater than 100 µM; in experiment [6], 3.43 µM. For the same compound, the TGI in [7] was found to be 12.3 µM; in experiment [8], 3.92 µM; in [9], 4.6 µM; in [10], 5.02 µM.

As for `CC(=O)OC[C@]12CC[C@@H](C(=O)CBr)[C@@H]1[C@H]1CC[C@@H]3[C@@]4(C)CCCNC(C)(C)[C@@H]4CC[C@@]3(C)[C@]1(C)CC2`, the GI50 in experiment [1] was 15.9 µM; in [2], 2 µM; in [3], 4.1 µM; in [4] it was 2.31 µM; in experiment [5], 2 µM; in experiment [6] it was 2.38 µM. The GI50 in experiment [7] is 2.23 µM; in [8], 3.81 µM; in [9], 12.5 µM; in experiment [10] it was 12.7 µM. Further, the TGI was greater than 100 µM in experiment [1]; 4.29 µM in experiment [2]; 14.2 µM in experiment [3]; 6.92 µM in experiment [4]; 5.71 µM in experiment [5]; 6.66 µM in experiment [6]. Also, the TGI stood at 4.23 µM in experiment [7], 13.8 µM in experiment [8], 25.2 µM in [9] and 25.4 µM in experiment [10].

Consider `CCOC(=O)c1c2c(n(Cc3ccc(Cl)cc3Cl)c1C)-c1nc[nH]c1C(=O)C2=O`, for which the GI50 in [1] was 23.1 µM; in experiment [2] it was 11.6 µM; in experiment [3], 11.8 µM; in experiment [4], 1.65 µM; in experiment [5], 1.21 µM; in experiment [6], 14.7 µM. Further, the GI50 in experiment [7] is 15.6 µM; in experiment [8], 13.5 µM; in experiment [9], 13 µM; in experiment [10], 7.01 µM. In addition, the TGI in experiment [1] was determined as 74.5 µM; in experiment [2], 27.4 µM; in experiment [3], 24.1 µM; in experiment [4] it was 5.03 µM; in experiment [5], 2.79 µM; in experiment [6], 27.8 µM. For the same compound, the TGI turned out to be 28.9 µM in [7], 30.1 µM in experiment [8], 27.4 µM in experiment [9] and 19.5 µM in experiment [10].
